For one assay, the system named is Hep3B. As to the kind of experiment: Cell proliferation assay (CellTiter 96 Aqueous One Solution). The assay is classed as cell-based. To be noted: Homo sapiens, hepatocellular carcinoma cells, 48 hours of treatment. The method, then:
(§1) Cell proliferation was analyzed after 48 hours of in vitro treatment using the CellTiter 96 Aqueous One Solution Cell Proliferation Assay (Promega, Madison, W). This is a colorimetric method for determining the number of viable cells in proliferation.
(§2) For the assay, suspension cells were cultured by triplicate at a density of 1×10^6 cells/ml in 96-well plates (100.000 cells/well, 100 μl/well), except for HepG2, Hep3B and PLC/PRF/5 cell lines which were cultured at a density of 3000 cells/well, 100 μl/well).
(§3) Adherent cells were obtained from 80-90% confluent flasks and 100 μl of cells were seeded at a density of 5000 cells/well in 96-well plates by triplicate. Before addition of the compounds, adherent cells were allowed to attach to the bottom of the wells for 12 hours. In all cases, only the 60 inner wells were used to avoid any border effects.
(§4) After 48 hours of treatment, plates with suspension cells were centrifuged at 800g for 10 minutes and medium was removed. The plates with adherent cells were flicked to remove medium. Then, cells were incubated with 100 μl/well of medium and 20 μl/well of CellTiter 96 Aqueous One Solution reagent. After 1-3 hours of incubation at 37° C., absorbance was measured at 490 nm in a 96-well plate reader. The background absorbance was measured in wells with only cell line medium and solution reagent. Data was calculated as a percentage of total absorbance of treated cell/absorbance of non treated cells.

The test system of another assay is HepG2. Described as above. It counts as cell-based. To be noted: Homo sapiens, hepatocellular carcinoma cells, 48 hours of treatment. On the procedure: as §1, §2, §3, §4
For the next assay, the system named is CEMO-1. The assay is described as above. It counts as cell-based. The settings on record: acute lymphocytic leukemia (ALL) cells, 48 hours of treatment. On the procedure:
as §1, §2, §3, §4

Another assay has as its target T1, human DNMT1 (Homo sapiens, UniProt P26358).
T1 construct: purchased Reaction Biology Corp. DMT-21-124
As to the kind of experiment: DNMT1 enzyme activity assay (TR-FRET, EPIgeneous methyltransferase assay). The assay is classed as biochemical. The settings on record: human DNMT1, 15 minutes at 37° C. On the procedure: DNMT1 Enzyme Activity Assay
The biochemical assay to measure DNMT1 enzyme activity relies on time-resolved fluorescence energy transfer (TR-FRET) between lumi4-Tb (donor) and d2 (acceptor) using the EPIgeneous methyltransferase assay (CisBio Cat#62SAHPEB). […] TR-FRET signal is inversely proportional to the concentration of SAH, product of DNMT1 enzyme activity, in the sample. The human DNMT1 was obtained from Reaction Biology Corp. (Cat# DMT-21-124).
Enzyme activity assay was carried out in a white 384-well plate in a final volume of 20 μl, as follow: • 4 μl of vehicle or studied compound 2.5× concentrated prepared in assay buffer (50 mM Tris-HCl, 1 mM EDTA, 1 mM DTT, 0.1% Triton X-100, 5% glycerol pH 7.5). Final percentage of DMSO was 0.5%. • 2 μl of 1 nM DNMT1 enzyme diluted in assay buffer.
For each well, fluorescence was measured at 620 nm and 665 nm. A ratio (665 nm/620 nm) was then calculated in order to minimize medium interferences. Positive control was obtained in the presence of the vehicle of the compounds. Calculated IC50 values were determined using GraphPrism using 4-parameters inhibition curve.
Background: Time-resolved FRET reads energy transfer from a long-lived donor to a nearby acceptor.

The target of the next assay is T2, human G9a enzyme (Homo sapiens, UniProt Q96KQ7).
T2 construct: purchased BPS Biosciences 51001; host or cells: baculovirus infected Sf9 cells
T2 sequence (Q96KQ7 1-1210): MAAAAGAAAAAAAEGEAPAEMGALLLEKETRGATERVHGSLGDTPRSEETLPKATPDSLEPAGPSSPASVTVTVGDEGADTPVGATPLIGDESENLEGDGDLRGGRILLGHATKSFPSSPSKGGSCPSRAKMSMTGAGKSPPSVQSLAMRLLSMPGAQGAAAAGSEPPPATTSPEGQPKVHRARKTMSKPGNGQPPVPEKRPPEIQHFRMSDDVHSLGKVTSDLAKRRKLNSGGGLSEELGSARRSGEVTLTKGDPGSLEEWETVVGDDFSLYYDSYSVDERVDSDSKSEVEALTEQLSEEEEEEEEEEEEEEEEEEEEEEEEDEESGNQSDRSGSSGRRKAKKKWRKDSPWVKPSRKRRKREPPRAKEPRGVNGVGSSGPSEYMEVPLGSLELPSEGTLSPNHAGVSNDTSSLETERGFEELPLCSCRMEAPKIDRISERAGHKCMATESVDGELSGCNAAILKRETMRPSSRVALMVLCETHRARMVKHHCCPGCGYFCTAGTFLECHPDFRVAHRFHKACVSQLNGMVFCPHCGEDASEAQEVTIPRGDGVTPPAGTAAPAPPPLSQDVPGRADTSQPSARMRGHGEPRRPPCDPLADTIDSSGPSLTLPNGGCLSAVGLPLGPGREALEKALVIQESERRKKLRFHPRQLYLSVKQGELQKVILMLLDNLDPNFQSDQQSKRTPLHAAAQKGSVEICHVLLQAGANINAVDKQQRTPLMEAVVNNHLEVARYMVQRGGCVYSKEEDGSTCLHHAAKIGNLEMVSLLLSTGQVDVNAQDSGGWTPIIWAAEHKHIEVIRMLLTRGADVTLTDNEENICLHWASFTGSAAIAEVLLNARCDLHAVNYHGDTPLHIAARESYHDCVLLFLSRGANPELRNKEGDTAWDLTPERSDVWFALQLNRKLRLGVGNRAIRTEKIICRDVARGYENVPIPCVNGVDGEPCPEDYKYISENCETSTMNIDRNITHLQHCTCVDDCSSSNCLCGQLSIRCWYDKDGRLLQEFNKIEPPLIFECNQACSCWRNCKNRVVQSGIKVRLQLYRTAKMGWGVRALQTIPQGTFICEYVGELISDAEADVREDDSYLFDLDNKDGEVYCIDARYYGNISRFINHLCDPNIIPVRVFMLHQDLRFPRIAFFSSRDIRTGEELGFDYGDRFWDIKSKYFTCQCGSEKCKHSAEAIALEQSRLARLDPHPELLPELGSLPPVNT
As to the kind of experiment: G9a enzyme activity assay (TR-FRET). It counts as biochemical. To be noted: 1 hour at room temperature. On the procedure: G9a Enzyme Activity Assay
The biochemical assay to measure G9a enzyme activity relies on time-resolved fluorescence energy transfer (TR-FRET) between europium cryptate (donor) and XL665 (acceptor). […] The human G9a enzyme expressed in a baculovirus infected Sf9 cell expression system was obtained from BPS Biosciences (Cat. #51001). Enzyme activity assay was carried out in a white 384-well plate in a final volume of 20 μl, as follow: • 4 μl of vehicle or studied compound 2.5× concentrated prepared in assay buffer (50 mM Tris-HCl, 10 mM NaCl, 4 mM DTT, 0.01% Tween-20 pH9). Final percentage of DMSO was 0.5%. • 2 μl of 1 nM G9a enzyme diluted in assay buffer. […] Final concentration 150 nM. • Then, add 5 μl of streptavidin XL665 beads. Final concentration of 16 μM. • Read the plate after 1 hour of incubation at room temperature.
For each well, fluorescence was measured at 620 nm and 665 nm. A ratio (665 nm/620 nm) was then calculated in order to minimize medium interferences. Positive control was obtained in the presence of the vehicle of the compounds. Negative control was obtained in the absence of G9a enzyme activity. Calculated IC50 values were determined using GraphPrism using 4-parameters inhibition curve.

Another assay has as its system PLC/PRF/5. The assay is described as follows: Cell proliferation assay (CellTiter 96 Aqueous One Solution). It counts as cell-based. The settings on record: Homo sapiens, hepatocellular carcinoma cells, 48 hours of treatment. On the procedure:
as §1, §2, §3, §4

Assay [1] has as its system DNA methyltransferase (DNMT). To be noted: selectivity in a methyltransferase enzyme panel including one DNMT, according to the authors; cited from earlier work.

Where only a bound is given, the exact number is not on record here.

T1 sequence (P26358 whole entry): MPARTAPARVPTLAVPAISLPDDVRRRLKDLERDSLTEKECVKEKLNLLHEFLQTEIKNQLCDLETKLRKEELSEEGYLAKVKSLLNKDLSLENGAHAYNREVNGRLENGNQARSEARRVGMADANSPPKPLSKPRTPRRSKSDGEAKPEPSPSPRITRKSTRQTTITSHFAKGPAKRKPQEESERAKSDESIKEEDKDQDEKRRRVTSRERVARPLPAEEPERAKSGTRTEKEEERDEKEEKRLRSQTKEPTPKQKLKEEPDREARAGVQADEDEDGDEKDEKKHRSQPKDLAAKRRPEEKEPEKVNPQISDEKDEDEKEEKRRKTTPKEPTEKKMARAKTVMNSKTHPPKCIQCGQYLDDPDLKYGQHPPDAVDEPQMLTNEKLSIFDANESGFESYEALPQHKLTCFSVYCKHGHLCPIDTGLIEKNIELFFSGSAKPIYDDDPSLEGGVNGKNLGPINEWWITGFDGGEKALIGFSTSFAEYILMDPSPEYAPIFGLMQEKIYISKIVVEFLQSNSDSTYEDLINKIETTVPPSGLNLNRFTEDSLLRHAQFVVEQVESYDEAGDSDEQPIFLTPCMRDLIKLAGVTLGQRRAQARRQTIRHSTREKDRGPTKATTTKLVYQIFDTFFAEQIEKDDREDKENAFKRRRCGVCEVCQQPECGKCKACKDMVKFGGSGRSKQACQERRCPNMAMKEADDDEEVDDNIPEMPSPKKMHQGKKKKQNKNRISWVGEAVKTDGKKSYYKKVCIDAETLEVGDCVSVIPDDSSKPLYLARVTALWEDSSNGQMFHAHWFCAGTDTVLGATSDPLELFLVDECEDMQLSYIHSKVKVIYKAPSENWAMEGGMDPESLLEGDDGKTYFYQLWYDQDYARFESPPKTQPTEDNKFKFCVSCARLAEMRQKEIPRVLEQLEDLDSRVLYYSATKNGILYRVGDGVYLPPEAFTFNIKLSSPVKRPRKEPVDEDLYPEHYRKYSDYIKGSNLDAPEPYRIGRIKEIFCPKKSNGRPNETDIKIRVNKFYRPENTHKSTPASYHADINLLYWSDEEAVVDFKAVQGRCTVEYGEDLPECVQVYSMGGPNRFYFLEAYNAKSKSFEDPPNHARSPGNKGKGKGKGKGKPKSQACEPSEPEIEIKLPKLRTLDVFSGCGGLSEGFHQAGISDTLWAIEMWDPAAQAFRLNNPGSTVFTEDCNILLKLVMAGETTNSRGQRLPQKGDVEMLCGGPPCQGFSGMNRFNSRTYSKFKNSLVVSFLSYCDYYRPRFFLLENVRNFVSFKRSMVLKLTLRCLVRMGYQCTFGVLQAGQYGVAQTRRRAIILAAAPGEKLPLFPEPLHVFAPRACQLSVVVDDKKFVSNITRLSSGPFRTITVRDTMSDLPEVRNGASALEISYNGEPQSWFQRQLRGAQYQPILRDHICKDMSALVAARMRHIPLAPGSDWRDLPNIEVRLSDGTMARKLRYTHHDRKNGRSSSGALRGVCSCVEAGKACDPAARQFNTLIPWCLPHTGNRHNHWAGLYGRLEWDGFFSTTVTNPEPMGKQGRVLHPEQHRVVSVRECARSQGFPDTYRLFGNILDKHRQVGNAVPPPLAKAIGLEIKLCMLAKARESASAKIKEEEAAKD

Turning to `COc1cc2c(N(C)C3CCN(C)CC3)cc(-c3ccc(C)o3)nc2cc1OCCCN1CCCC1` [Compound 1-02], the figures for the concentration for 50% growth inhibition (GI50) with Hep3B, in the assay with HepG2 and in the assay with CEMO-1 were 1000 to 10000 nM, 1000 to 10000 nM and at least 10000 nM, respectively.
As to `COc1cc2c(N(C)CC3CCN(C)CC3)cc(-c3ccc(C)o3)nc2cc1OCCCN1CCCC1` [Compound 1-03], the IC50 against human DNMT1 lay within 100 to 500 nM; against human G9a enzyme, 1000 to 10000 nM. The figures for the GI50 in the assay on Hep3B, with HepG2 and with CEMO-1 were 100 to 1000 nM, 100 to 1000 nM and 1000 to 10000 nM, respectively.
For `CCc1ccc(-c2cc(N(C)CC3CCN(C)CC3)c3cc(OC)c(OCCCN4CCCC4)cc3n2)o1` [Compound 1-04], the half-maximal inhibitory concentration (IC50) at human DNMT1 is 100 to 500 nM; against human G9a enzyme, 500 to 1000 nM. Further, the concentration for 50% growth inhibition (GI50) with Hep3B, in the assay with HepG2 and with CEMO-1 was 100 to 1000 nM in each case.
In the case of `COc1cc2c(OC3CCN(C)CC3)cc(-c3ccc(C)o3)nc2cc1OCCCN1CCCC1` [Compound 3-01, 6-methoxy-2-(5-methyl-2-furyl)-4-[(1-methyl-4-piperidyl)oxy]-7-(3-pyrrolidin-1-ylpropoxy)quinoline], the concentration for 50% growth inhibition (GI50) in the assay with Hep3B, with HepG2, in the assay on CEMO-1 and in the assay with PLC/PRF/5 was 1000 to 10000 nM each time.
On to `COc1cc2c(C3CCN(C)CC3)cc(-c3ccc(C)o3)nc2cc1OCCCN1CCCC1` [Compound 4-02, 6-methoxy-2-(5-methyl-2-furyl)-4-(1-methyl-4-piperidyl)-7-(3-pyrrolidin-1-ylpropoxy)quinoline], for which the IC50 against human DNMT1 and on human G9a enzyme was 1000 to 10000 nM in each case.
Regarding `COc1cc2c(C=C3CCN(C)CC3)cc(-c3ccc(C)o3)nc2cc1OCCCN1CCCC1` [Compound 5-01, 6-methoxy-2-(5-methyl-2-furyl)-4-[(1-methyl-4-piperidylidene)methyl]-7-(3-pyrrolidin-1-ylpropoxy)quinoline], the IC50 is 1000 to 10000 nM against human DNMT1 and over 10000 nM at human G9a enzyme.
`COc1cc2nc(N3CCCN(C)CC3)cc(NC3CCN(Cc4ccccc4)CC3)c2cc1OC` [Compound 41]: the “activity against the DNA methyltransferase” value in assay [1] was “inactive”.
As for `COc1cc2nc(N3CCN(C)CC3)cc(NC3CCN(Cc4ccccc4)CC3)c2cc1OC` [Compound 42], in assay [1], the “activity against the DNA methyltransferase” value was “inactive”.

In general, GI50 refers to the concentration at which growth is held to half of that of the control. Read a high GI50 as lower sensitivity of the cells. By IC50 is commonly meant the concentration that gives 50% inhibition. Read a high IC50 as weaker potency.

Values taken from patent US20190127354A1, “2,4,6,7-TETRASUBSTITUTED QUINOLINE COMPOUNDS AS INHIBITORS OF DNA […]” (FUNDACIÓN PARA LA INVESTIGACIÓN MÉDICA APLICADA, priority 2015, published 2019).
